Experimental findings from publication PMC11126973, “Targeting the Plasmodium falciparum UCHL3 ubiquitin hydrolase using chemically constrained peptides” (Proceedings of the National Academy of Sciences of the …, 2024) are described below.

Values joined by “and” are separate entries in the source; they are usually repeats but may differ in a detail not shown here. Identical values can stand only once. Bridge positions count the residues as written; N and C are the ends. Square brackets hold non-standard residues; d marks the D form. Peptide text beside a SMILES is read from it.

Assay [1] deals with T1, PfUCHL3 (Plasmodium falciparum, UniProt Q8IKM8).
T1 sequence (Q8IKM8 1-232): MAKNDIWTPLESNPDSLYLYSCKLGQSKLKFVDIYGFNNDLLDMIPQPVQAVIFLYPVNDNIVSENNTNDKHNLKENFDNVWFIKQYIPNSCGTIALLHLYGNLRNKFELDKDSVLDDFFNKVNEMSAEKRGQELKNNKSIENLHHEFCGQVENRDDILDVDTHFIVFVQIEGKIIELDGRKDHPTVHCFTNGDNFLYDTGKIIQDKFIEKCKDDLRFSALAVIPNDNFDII
The assay is described as follows: biochemical. Type of assay: binding. On the set-up: His tag (TEV-cleavable) (cleaved yes); made in house. The following applies: for Kd: BLI, 25 °C. On the procedure: BLI experiments were performed using a ForteBio Octet Red96 instrument at 25 °C. Measurements were performed in black 96-well plates with a well volume of 200 μL. Biotinylated Avi-tagged PfUCHL3 was prepared in a buffer containing 50 mM Tris-HCl buffer, 200 mM NaCl, 0.5 mM TCEP, pH 7.5, and loaded at 1 μg/mL for 60 s. Peptides were diluted to a 4 μM stock concentration in the same DMSO:water mix in which they were resuspended from their stock powder (approximately 4%). The final dilutions (to 400 nM, 133.3 nM, and 44.4 nM) were performed in the same buffer as for the PfUCHL3. Streptavidin-coated tips were used with a new tip for each measurement, because regeneration with PfUCHL3 attached to the tip was not possible. The association and dissociation times were 300 s. All data analysis was performed with the instrument software.

In assay [2] the target is T1, PfUCHL3. Kind of assay: Thermal shift assay (TSA) of PfUCHL3 with peptides. Type of assay: binding. On the set-up: His tag (TEV-cleavable) (cleaved yes); made in house; host or cells: bacterial cells (purified 'as described above', C41). The following applies: peptide 48 pM to 25 μM, PfUCHL3 5 μM. On the procedure: Thermal shift assays were performed using a Bio-Rad CFX Connect qPCR instrument, whereby the unfolding is detected by fluorescence of the hydrophobic dye Sypro Orange that binds to the unfolded state of the protein. The experiments were performed in clear-bottom, half-volume, 96-well plates using final well volumes of 25 μL, PfUCHL3 concentration of 5 μM, peptide concentrations ranging from 47 pM to 25 μM, and Sypro Orange:protein concentration ratio of 1:400. PfUCHL3, Sypro orange, and peptide were diluted to 5x concentration in buffer, 1:2,000 concentration in buffer, and 4% DMSO, respectively, before being mixed in the well to a final 1x concentration in buffer. For the PfUCHL3-only control, the peptide was replaced with 4% DMSO and for the buffer control, the PfUCHL3 was replaced with buffer in the sample mix. The samples were incubated at 20 °C for 2 min before increasing by 0.5 °C every 30 s up to 90 °C. At each temperature, the fluorescence intensity was measured using an excitation wavelength of 471 nm and an emission wavelength of 570 nm. Data analysis was performed using the GraphPad Prism software.

For a further assay, the system named is T2, HsUCHL3.
T2 construct: His tag (TEV-cleavable) (cleaved yes); made in house; host or cells: bacterial cells (purified 'as described above')
The assay is described as follows: Ub-AMC deubiquitination (DUB) assay, HsUCHL3. It counts as biochemical, human. The following applies: peptide 25 μM, HsUCHL3 31.25 pM. On the procedure: (§1) DUB assays were performed in triplicate in 384-well plates (Corning) using a CLARIOstar plus plate reader. PfUCHL3, HsUCHL3, or peptide were diluted in reaction buffer (50 mM Tris-HCl buffer, pH 7.5, 150 mM NaCl, 1 mg/mL BSA, 0.1% DMSO, and 1 mM TCEP) to 4× the desired final peptide/protein concentration (to keep DMSO concentration constant in all reactions). Protein and peptide (or 0.1% DMSO (mock)) were mixed 1:1 and incubated for 10 min at room temperature, with each enzyme complex at 2× the desired final concentration. Enzyme:peptide mixture (10 μL) and Ub-AMC (7-amino-4-methylcoumarin, Boston Biochem) (250 nM, 10 μL) were mixed in a 384-well plate. DUB activity was measured by monitoring the increase in AMC fluorescence. The kinetic trace at each concentration of peptide was corrected for background and then the initial rate of reaction was determined. The rate of reaction was plotted against the concentration of peptide to determine the IC50 using the following equation: Y=Vmax^*X/IC50+X,
(§2) where Vmax is the reaction rate in the absence of inhibitor, X is the concentration of the peptide inhibitor, and IC50 is the peptide concentration when the rate was inhibited by the peptide by 50%. The data were fitted using Prism (Graphpad).

Assay [3] concerns the target T1, PfUCHL3. The assay is described as follows: biochemical. On the set-up: His tag (TEV-cleavable) (cleaved yes); made in house. On the procedure:
as §1, §2

As for `CC[C@H](C)[C@@H]1NC(=O)[C@H](Cc2ccc(O)cc2)NC(=O)[C@H](CCCNC(=N)N)NC(=O)[C@H](CCC(N)=O)NC(=O)[C@H](Cc2ccc(O)cc2)NC(=O)[C@H](CC(=O)O)NC(=O)[C@@H](Cc2c[nH]c3ccccc23)NC(=O)CSC[C@@H](C(=O)O)NC(=O)[C@H](Cc2c[nH]c3ccccc23)NC(=O)[C@H](CS)NC(=O)[C@H]([C@@H](C)O)NC(=O)[C@H]([C@@H](C)O)NC(=O)[C@H](CC(C)C)NC(=O)[C@H](CCCNC(=N)N)NC(=O)[C@H](Cc2ccccc2)NC(=O)[C@H](CCCCN)NC1=O` [Peptide 58474] ({CH2CO}-[dW]DYQRYIKFRLTTCWC-OH; thioether N-16), on PfUCHL3 [1], the koff – broadly, the first-order rate constant of dissociation – worked out at 0.00174 ± 9e-05 s⁻¹ and the kon – broadly, the rate constant with which the complex forms – was 17100 ± 900 M⁻¹ s⁻¹. The Kd (usually the free concentration of one partner at which half of the binding sites on the other are occupied at equilibrium, for simple one-to-one binding) on PfUCHL3 [1] (1:1 (1-site) model) came out at 101 ± 7 nM.

Take `CC[C@H](C)[C@@H]1NC(=O)[C@H](Cc2c[nH]c3ccccc23)NC(=O)[C@H](CC(C)C)NC(=O)[C@H](CCCNC(=N)N)NC(=O)[C@@H](Cc2c[nH]c3ccccc23)NC(=O)CSC[C@@H](C(=O)O)NC(=O)[C@H](CC(=O)O)NC(=O)[C@H](Cc2ccc(O)cc2)NC(=O)[C@H](CCCNC(=N)N)NC(=O)[C@H](CC(N)=O)NC(=O)[C@H](Cc2ccc(O)cc2)NC(=O)[C@H](CCCNC(=N)N)NC(=O)[C@H](CCCNC(=N)N)NC(=O)[C@H](CCC(=O)O)NC(=O)[C@H](CO)NC(=O)[C@H](CC(C)C)NC1=O` [Peptide 60296] ({CH2CO}-[dW]RLWILSERRYNRYDC-OH; thioether N-16): at PfUCHL3 [1], the koff worked out at 0.0053 ± 6e-05 s⁻¹ and the kon amounted to 569000 ± 16000 M⁻¹ s⁻¹. On PfUCHL3 [2], the “dose dependence of PfUCHL3 melting temperature” value is recorded as “increase in a dose-dependent manner”. Also, the “inhibitory effect on the human UCHL3 enzyme” value in the assay with HsUCHL3 is given as “Neither 60296 nor 60297 peptides showed any inhibitory effect”.

For `CC(C)[C@@H]1NC(=O)[C@H](Cc2ccc(O)cc2)NC(=O)[C@H](Cc2c[nH]cn2)NC(=O)[C@H](Cc2c[nH]c3ccccc23)NC(=O)[C@@H]2CCCN2C(=O)[C@H](Cc2c[nH]c3ccccc23)NC(=O)[C@H](Cc2ccccc2)NC(=O)[C@H]([C@@H](C)O)NC(=O)[C@H]([C@@H](C)O)NC(=O)[C@@H](Cc2c[nH]c3ccccc23)NC(=O)CSC[C@@H](C(=O)O)NC(=O)[C@H](CCC(N)=O)NC1=O` [Peptide 60297] ({CH2CO}-[dW]TTFWPWHYVQC-OH; thioether N-12), the Kd at PfUCHL3 [1] (complex profile fitted to heterogeneous model, the tighter of the two Kd values) is 2 nM and ~2 nM. Moreover, the IC50 – broadly, the concentration needed to halve the response being measured – against PfUCHL3 [3] was determined as 1440 ± 371 nM.
